{
  "source": "patent US20060110790A1",
  "about": "“Expression system for large functional proteins” (priority 2002, published 2006)",
  "key": {"[1]": {"target": "T1, individually expressed N half of ABCR containing 1D4 epitope tag (N*) (Homo sapiens, UniProt P78363)", "T1 construct": "The cDNAs coding for the N-half (amino acids 1-1325) and C-half (amino acids 1326-2273) of ABCR; made in house; host or cells: COS-1 cells", "T1 sequence (P78363 1-1325)": "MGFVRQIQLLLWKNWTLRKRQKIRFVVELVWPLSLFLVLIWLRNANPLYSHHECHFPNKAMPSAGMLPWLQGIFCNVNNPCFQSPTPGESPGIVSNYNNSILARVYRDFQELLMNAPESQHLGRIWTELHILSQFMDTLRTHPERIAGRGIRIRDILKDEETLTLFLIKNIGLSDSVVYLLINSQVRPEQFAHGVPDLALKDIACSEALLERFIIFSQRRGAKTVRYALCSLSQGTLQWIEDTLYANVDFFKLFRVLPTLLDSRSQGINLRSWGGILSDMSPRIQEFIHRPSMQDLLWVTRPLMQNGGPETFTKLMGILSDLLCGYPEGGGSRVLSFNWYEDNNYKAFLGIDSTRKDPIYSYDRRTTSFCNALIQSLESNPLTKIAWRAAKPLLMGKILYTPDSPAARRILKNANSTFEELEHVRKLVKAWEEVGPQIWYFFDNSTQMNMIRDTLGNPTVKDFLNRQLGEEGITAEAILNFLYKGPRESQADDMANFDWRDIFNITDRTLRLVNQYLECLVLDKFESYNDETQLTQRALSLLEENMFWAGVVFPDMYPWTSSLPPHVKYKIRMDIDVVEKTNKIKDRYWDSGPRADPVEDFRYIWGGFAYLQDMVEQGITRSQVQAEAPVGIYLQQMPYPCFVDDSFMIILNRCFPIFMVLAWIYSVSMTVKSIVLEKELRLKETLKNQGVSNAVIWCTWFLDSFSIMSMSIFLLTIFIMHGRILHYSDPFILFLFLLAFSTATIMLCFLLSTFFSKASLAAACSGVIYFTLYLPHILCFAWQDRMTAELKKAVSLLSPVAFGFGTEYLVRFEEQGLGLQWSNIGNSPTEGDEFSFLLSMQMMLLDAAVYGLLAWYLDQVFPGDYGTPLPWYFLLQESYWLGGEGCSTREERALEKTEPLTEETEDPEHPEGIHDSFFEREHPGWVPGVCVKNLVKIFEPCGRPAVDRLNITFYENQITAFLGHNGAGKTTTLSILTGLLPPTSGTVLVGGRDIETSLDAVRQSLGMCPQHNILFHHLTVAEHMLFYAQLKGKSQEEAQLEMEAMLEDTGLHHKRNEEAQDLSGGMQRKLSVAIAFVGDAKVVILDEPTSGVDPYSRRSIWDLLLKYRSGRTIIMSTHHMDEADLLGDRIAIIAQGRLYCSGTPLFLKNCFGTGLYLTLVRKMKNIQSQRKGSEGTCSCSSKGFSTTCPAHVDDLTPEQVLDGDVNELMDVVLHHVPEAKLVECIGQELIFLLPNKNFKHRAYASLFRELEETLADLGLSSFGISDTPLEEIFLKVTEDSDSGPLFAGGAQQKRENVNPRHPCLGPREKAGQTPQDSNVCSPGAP", "assay": "Retinal-stimulated ATPase activity of purified protein reconstituted in lipid vesicles", "format": "biochemical", "settings": "individually expressed in COS-1 cells, 1D4-tagged, 50 μM [α32P]ATP", "method": "Membranes (from two 10 cm dishes) were solubilized in 0.5 ml of 1% Triton-X100 in Buffer A (140 mM NaCl, 20 mM Tris-HCl, pH 7.4) for 20 min on ice. For ATPase assays, the membrane preparation step was omitted and the cell suspension was solubilized directly in Buffer B (10 mg/ml soybean phospholipids, 10% glycerol, 1 mM dithiothreitol, 100 mM NaCl, 3 mM MgCl2, 50 mM NaHEPES, pH 7.4) containing 18 mM CHAPS. The supernatant after a 10 min centrifugation at 40,000 rpm (TLA100.4 rotor) was mixed with 50 μl Rim3F4 Sepharose 2B for 1 h at 4° C. The beads were washed 6 times in Buffer A containing 0.2% Triton X-100 or Buffer B containing 10 mM CHAPS and eluted with 4% SDS (for electrophoresis) or 0.2 mg/ml Rim3F4 peptide (for reconstitution and determination of ATPase activity). Purified protein (24 μl) was incubated with 6 μl of 50 mg/ml lipid (1:1 mixture of dioleoylphosphatidylethanolamine and brain polar lipid, by weight) and 3 μl n-octylglucoside for 30 min on ice. The mixture was diluted rapidly with 200 μl of Buffer C (1 mM dithiothreitol, 140 mM NaCl, 25 mM NaHEPES, pH 7.4) and passed through a 200 μl Extracti-gel column (Pierce). The flow-through containing the reconstituted protein was used for determination of ATPase activity.\nATPase activity was measured as described previously (Ahn, J., Wong, J. T., and Molday, R. S. (2000) J Biol Chem 275(27), 20399-405) using 50 μM [α^32P]ATP and thin layer chromatography. The all-trans retinal concentration was determined spectrophotometrically (λ383 nm=42.88 mM^−1 cm^−1). Protein concentration was estimated from the eluate before reconstitution by laser densitometry of Coomassie blue stained gels using bovine serum albumin as a standard. […] Direct protein measurements after reconstitution by densitometry of Western blots was about half of that in the eluate. […]\n(§1) ATPase Activity of Expressed N and C Halves—The basal and retinal activated ATPase activity of full-length ABCR and the N and C halves individually or co-expressed in COS-1 cells was determined after immunoaffinity purification and reconstitution into lipid vesicles. […]"}, "[2]": {"target": "full-length ABCR (Homo sapiens, UniProt P78363)", "sequence (P78363 whole entry)": "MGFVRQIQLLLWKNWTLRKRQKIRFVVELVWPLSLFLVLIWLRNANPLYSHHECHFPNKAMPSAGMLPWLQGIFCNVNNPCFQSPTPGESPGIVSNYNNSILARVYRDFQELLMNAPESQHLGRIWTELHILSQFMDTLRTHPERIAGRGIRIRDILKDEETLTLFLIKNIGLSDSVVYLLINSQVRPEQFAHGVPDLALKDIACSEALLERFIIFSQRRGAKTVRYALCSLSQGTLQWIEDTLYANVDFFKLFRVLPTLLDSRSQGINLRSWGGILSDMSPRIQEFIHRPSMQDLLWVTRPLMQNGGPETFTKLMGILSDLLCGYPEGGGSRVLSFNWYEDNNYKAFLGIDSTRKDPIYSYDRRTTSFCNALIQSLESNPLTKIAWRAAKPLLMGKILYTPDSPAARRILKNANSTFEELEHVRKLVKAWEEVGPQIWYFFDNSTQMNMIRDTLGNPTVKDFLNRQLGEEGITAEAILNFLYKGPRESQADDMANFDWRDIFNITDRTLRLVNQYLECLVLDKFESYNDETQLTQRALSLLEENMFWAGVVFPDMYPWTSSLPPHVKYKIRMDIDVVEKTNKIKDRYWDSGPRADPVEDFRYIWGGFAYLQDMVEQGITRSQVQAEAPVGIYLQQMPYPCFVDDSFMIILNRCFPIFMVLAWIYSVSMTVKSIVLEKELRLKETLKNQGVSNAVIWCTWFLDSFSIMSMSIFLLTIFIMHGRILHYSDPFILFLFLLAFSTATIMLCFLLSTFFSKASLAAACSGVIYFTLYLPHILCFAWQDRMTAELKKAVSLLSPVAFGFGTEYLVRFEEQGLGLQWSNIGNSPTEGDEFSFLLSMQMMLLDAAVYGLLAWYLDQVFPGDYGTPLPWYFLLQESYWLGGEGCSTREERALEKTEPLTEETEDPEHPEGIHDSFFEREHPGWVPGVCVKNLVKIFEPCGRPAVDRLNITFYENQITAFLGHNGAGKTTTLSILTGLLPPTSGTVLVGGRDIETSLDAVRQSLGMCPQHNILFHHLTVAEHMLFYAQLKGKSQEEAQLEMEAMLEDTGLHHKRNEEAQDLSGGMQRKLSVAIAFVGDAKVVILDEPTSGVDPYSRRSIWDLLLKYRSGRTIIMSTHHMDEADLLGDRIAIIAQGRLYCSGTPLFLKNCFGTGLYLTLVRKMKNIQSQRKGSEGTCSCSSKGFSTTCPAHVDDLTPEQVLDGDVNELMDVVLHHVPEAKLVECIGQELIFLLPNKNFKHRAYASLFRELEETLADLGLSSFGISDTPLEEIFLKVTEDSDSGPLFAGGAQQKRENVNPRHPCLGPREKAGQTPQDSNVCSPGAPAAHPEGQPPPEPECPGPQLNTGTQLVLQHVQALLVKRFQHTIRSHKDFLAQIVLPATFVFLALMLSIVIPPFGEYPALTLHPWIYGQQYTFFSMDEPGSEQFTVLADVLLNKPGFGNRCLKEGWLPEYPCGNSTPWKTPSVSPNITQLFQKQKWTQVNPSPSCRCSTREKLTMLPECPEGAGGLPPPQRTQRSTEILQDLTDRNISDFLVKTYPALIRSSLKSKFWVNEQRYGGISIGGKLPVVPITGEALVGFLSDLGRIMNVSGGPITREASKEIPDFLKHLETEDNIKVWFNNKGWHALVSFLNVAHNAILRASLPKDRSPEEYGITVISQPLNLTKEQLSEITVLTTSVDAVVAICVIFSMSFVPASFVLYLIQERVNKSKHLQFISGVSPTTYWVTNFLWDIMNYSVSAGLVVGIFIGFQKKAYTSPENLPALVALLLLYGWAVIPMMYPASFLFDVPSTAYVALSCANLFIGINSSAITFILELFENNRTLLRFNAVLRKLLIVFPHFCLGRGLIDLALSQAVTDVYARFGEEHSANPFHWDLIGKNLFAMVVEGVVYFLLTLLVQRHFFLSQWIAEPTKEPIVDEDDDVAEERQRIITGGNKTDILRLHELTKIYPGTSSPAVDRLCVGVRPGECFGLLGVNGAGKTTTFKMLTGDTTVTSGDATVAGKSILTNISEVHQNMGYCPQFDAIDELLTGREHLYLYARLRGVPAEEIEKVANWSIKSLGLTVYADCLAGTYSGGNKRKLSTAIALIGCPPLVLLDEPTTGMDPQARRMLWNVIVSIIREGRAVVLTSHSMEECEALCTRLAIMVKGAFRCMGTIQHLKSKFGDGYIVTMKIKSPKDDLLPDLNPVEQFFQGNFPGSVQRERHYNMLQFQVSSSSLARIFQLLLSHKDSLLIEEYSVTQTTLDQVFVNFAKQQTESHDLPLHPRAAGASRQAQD", "assay": "Retinal-stimulated ATPase activity of purified protein reconstituted in lipid vesicles", "format": "biochemical", "design": "Membranes from transfected cells expressing either full-length ABCR (lanes 1 & 2) or co-expressing the N and C halves; expressed in transfected cells; host or cells: transfected cells (COS-1 or EBNA293)", "settings": "expressed in COS-1 cells, purified on Rim 3F4 column, 50 μM [α32P]ATP", "method": "Membranes (from two 10 cm dishes) were solubilized in 0.5 ml of 1% Triton-X100 in Buffer A (140 mM NaCl, 20 mM Tris-HCl, pH 7.4) for 20 min on ice. For ATPase assays, the membrane preparation step was omitted and the cell suspension was solubilized directly in Buffer B (10 mg/ml soybean phospholipids, 10% glycerol, 1 mM dithiothreitol, 100 mM NaCl, 3 mM MgCl2, 50 mM NaHEPES, pH 7.4) containing 18 mM CHAPS. The supernatant after a 10 min centrifugation at 40,000 rpm (TLA100.4 rotor) was mixed with 50 μl Rim3F4 Sepharose 2B for 1 h at 4° C. The beads were washed 6 times in Buffer A containing 0.2% Triton X-100 or Buffer B containing 10 mM CHAPS and eluted with 4% SDS (for electrophoresis) or 0.2 mg/ml Rim3F4 peptide (for reconstitution and determination of ATPase activity). […]\nATPase activity was measured as described previously (Ahn, J., Wong, J. T., and Molday, R. S. (2000) J Biol Chem 275(27), 20399-405) using 50 μM [α^32P]ATP and thin layer chromatography. The all-trans retinal concentration was determined spectrophotometrically (λ383 nm=42.88 mM^−1 cm^−1). […]\nas §1"}},
  "data": [
    {"smiles": "CC1=C(/C=C/C(C)=C/C=C/C(C)=C/C=O)C(C)(C)CCC1", "note": "[all-trans retinal]", "values": [
      {"measurement": "stimulation of ATPase activity", "setting": "[1]", "result": "not stimulated"},
      {"measurement": "stimulation of ATPase activity", "setting": "[2]", "result": "1-2 fold"}
    ]}
  ]
}
